US3979511A, “Inhibitors of reverse transcriptase enzymes” (Abbott Laboratories, priority 1974, dated 1976)
Values belong to the compound of their own block, whether it stands above or below them.

Legend:
[1] = molecular target: T1, reverse transcriptase of Rous sarcoma virus (Rous sarcoma virus - Prague C, UniProt P03354); experiment: Inhibition of reverse transcriptase activity in RSV particles (3H-thymidine triphosphate incorporation); format: biochemical; conditions: for inhibition at 400 µg/mL: 400 μg/ml., read-out: Percent Inhibition
T1 construct: alpha/beta heterodimer cut from Gag-Pol polyprotein; 3H-TTP incorporation
T1 sequence (P03354 709-1567): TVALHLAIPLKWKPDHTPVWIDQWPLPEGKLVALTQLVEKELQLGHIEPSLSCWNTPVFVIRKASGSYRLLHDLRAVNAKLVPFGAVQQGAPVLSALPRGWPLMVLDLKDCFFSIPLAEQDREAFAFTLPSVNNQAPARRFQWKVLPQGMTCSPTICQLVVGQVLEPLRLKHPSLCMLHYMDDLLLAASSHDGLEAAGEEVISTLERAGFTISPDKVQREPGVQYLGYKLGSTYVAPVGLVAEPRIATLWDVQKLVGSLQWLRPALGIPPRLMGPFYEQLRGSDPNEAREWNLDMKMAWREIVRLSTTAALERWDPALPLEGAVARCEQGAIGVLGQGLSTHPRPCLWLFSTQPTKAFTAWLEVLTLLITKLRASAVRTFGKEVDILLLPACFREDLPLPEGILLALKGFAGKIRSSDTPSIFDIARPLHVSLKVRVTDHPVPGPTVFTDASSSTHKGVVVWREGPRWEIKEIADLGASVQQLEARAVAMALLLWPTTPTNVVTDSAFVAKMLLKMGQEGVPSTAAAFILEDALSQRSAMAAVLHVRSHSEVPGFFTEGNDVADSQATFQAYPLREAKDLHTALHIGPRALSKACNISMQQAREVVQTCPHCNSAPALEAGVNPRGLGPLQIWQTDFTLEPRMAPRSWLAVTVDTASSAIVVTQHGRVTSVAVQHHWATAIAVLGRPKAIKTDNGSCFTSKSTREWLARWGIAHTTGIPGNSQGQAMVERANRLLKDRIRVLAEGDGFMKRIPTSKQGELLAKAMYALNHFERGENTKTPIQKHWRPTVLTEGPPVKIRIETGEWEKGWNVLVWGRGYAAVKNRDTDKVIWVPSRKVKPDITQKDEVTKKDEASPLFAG
Procedure: Inhibition was directly related to drug concentration. […] Reverse transcriptase activities were measured from the incorporation of ^3 H-thymidine triphosphate into trichloroacetic acid insoluble counts according to a published method (Nature, 227, 563 (1970). The drug was dissolved in dimethylsulfoxide at a concentration of 10 mg./ml. ##SPC3##
Degrees of the inhibition are listed below in Table 1.

Rous sarcoma virus [2] = experiment: Mortality of chicks infected intra-abdominally with Rous sarcoma virus; format: in vivo, chickens; conditions: for Probability (Fisher's exact probability for proportions): Virus + Drug I vs Virus; for Alive / Dead: Virus + Drug I, 200 mg./kg. by gavage every other day, 25 birds per group
From the text: (§1) To test the effectiveness of the present compounds, 12-day-old Cofal negative chicks were used. The chicks were purchased from SPAFA as 8-day-old embryonated eggs for the tests and comparison of the effectiveness of the inhibitors of the present invention. The chicks were divided into four groups of 25 birds per group:
(§2) Group 1 - Drug I control (9-0-methyloximinyl erythromycin A;
Group 2 - Drug I + Rous sarcoma virus (RSV);
Group 3 - Rous sarcoma virus (infection control);
Group 4 - Normal control (sham media)
(§3) The medication with the virus and drug combinations was started by gavage two days before the chicks were infected with the virus. The chickens treated with Drug I, 9-0-methyloximinyl erythromycin A, received 200 mg./kg. every other day for the entire 35 days of the experiment. Each week the chickens were weighed and the drug level was adjusted to accommodate the new weight.
On the third day the chickens in Groups 2 and 3 were infected intra-abdominally with Rous sarcoma virus (RSV). The inoculum received by each bird was 0.2 ml. and contained approximately 100,000 viral particles. Group 4 received a sham inoculation of 0.2 ml. of sterile tissue culture media.
(§4) The chickens were observed daily for the 35 days that the experiment was allowed to continue.
(§5) On the last day, the 35th day, all surviving chickens were sacrificed, weighed and autopsied.
The results of the experiment are provided in Table 3 which provides the following results: "Statistical Evaluation of Mortality of the Chickens".

[3] = Drug control group: mortality of uninfected chicks given drug; format: in vivo, chickens; conditions: Drug I control, 200 mg./kg. by gavage every other day, 25 birds
From the text: as §1, §2, §3, §4, §5

Rous sarcoma virus [4] = experiment: Blocking of transformation (focus formation) of chick embryonic fibroblasts by Rous sarcoma virus in tissue culture; format: cell-based
Procedure: In tissue culture, the effect of 9-0-methyloximinyl erythromycin A on the blocking of transformation of chick embryonic fibroblasts by Rous sarcoma virus is shown in Table 2. […] The assay was carried out according to a published method (J. Gen. Virol. I, 85 (1970).

[5] = period 4 after infection (period = 6 days)
[6] = period 5 after infection (period = 6 days)
[7] = period 6 after infection (period = 6 days)

inhibition at 400 µg/mL [1]: 52%
Compound: CCON=C1[C@H](C)C[C@@](C)(O)[C@H](O[C@@H]2O[C@H](C)C[C@H](N(C)C)[C@H]2O)[C@@H](C)[C@H](O[C@H]2C[C@@](C)(OC)[C@@H](O)[C@H](C)O2)[C@@H](C)C(=O)O[C@H](CC)[C@@](C)(O)[C@H](O)[C@H]1C [9-O-ethyloximinyl erythromycin A]

inhibition at 400 µg/mL [1]: 69%
Compound: CC[C@H]1OC(=O)[C@H](C)[C@@H](O[C@H]2C[C@@](C)(OC)[C@@H](O)[C@H](C)O2)[C@H](C)[C@@H](O[C@@H]2O[C@H](C)C[C@H](N(C)C)[C@H]2O)[C@](C)(O)C[C@@H](C)C(=NOCc2ccc(Cl)c(Cl)c2)[C@H](C)[C@@H](O)[C@H]1C [9-O-(3,4-dichlorobenzyloximinyl) erythromycin B]

inhibition at 400 µg/mL [1]: 47%
Compound: CCCON=C1[C@H](C)C[C@@](C)(O)[C@H](O[C@@H]2O[C@H](C)C[C@H](N(C)C)[C@H]2O)[C@@H](C)[C@H](O[C@H]2C[C@@](C)(OC)[C@@H](O)[C@H](C)O2)[C@@H](C)C(=O)O[C@H](CC)[C@@](C)(O)[C@H](O)[C@H]1C [9-O-propyloximinyl erythromycin A]

Compound: CC[C@H]1OC(=O)[C@H](C)[C@@H](O[C@H]2C[C@@](C)(OC)[C@@H](O)[C@H](C)O2)[C@H](C)[C@@H](O[C@@H]2O[C@H](C)C[C@H](N(C)C)[C@H]2O)[C@](C)(O)C[C@@H](C)C(=NOC)[C@H](C)[C@@H](O)[C@]1(C)O [9-O-methyloximinyl erythromycin A]
tumors in survivors at sacrifice and autopsy (Rous sarcoma virus [2]; RSV-infected birds that received Drug I 200 mg./kg. every other day, 35th day): had tumors in evidence | Probability (Fisher's exact probability for proportions) (Rous sarcoma virus [2]; period 4 after infection): .02 | Probability (Fisher's exact probability for proportions) (Rous sarcoma virus [2]; period 5 after infection): .006 | Probability (Fisher's exact probability for proportions) (Rous sarcoma virus [2]; period 6 after infection): .036 | Alive (Rous sarcoma virus [2]; [5]): 18 | Dead (Rous sarcoma virus [2]; [5]): 7 | Alive (Rous sarcoma virus [2]; [6]): 13 | Dead (Rous sarcoma virus [2]; [6]): 12 | Alive (Rous sarcoma virus [2]; [7]): 8 | Dead (Rous sarcoma virus [2]; [7]): 17 | inhibition at 400 µg/mL [1]: 57% | IC50 ([1]; RSV particles, drug dissolved in dimethylsulfoxide, read-out: Fifty percent inhibition of reverse transcriptase activity (converted)): ~459 µM | Alive ([3]; period 4 (period = 6 days)): 25 | Dead ([3]; period 4 (period = 6 days)): 0 | Alive ([3]; period 5 (period = 6 days)): 25 | Dead ([3]; period 5 (period = 6 days)): 0 | Alive ([3]; period 6 (period = 6 days)): 25 | Dead ([3]; period 6 (period = 6 days)): 0 | inhibition at 1 µg/mL (Rous sarcoma virus [4]; Rous sarcoma virus, Fibroblast, Drug Concentration 1 μg/ml): 39% | inhibition at 5 µg/mL (Rous sarcoma virus [4]; Rous sarcoma virus, Fibroblast, Drug Concentration 5 μg/ml): 53% | inhibition at 10 µg/mL (Rous sarcoma virus [4]; Rous sarcoma virus, Fibroblast, Drug Concentration 10 μg/ml): 95% | inhibition of focus formation (Rous sarcoma virus [4]; drug levels of 5-10 μg/ml): at least 50%
